“Also recorded” adds a separate entry of the source. Residues, ends and D or L forms follow the SMILES beside them. *: point of attachment. Cbz = O=C(OCc1ccccc1)*
Key:
A431 cells (R273H p53) = assay: Cell viability A431; type: cell-based; details: 0.3–20 µM, 24 h, CellTiter-Glo; R273H p53 mutation
SJSA-1 cells = assay: Cell viability SJSA-1; type: cell-based; details: 0.3–20 µM, 24 h, CellTiter-Glo; HDM2-overexpressing osteosarcoma; Figure 3A
[1] = test system: WS1 normal human fibroblasts; assay: Cell viability WS1 normal fibroblasts; details: 0.3–20 µM, 24 h, CellTiter-Glo; Figure 3I
MCF-7 cells [2] = details: ref Wade et al., 2008; cited from earlier work
SJSA-X cells [3] = assay: Cell viability SJSA-X; type: cell-based; details: 0.3–20 µM, 24 h, CellTiter-Glo; overexpresses HDM2 and HDMX; Figure 3B
HDM2 = details: ref Vassilev et al., 2004; cited from earlier work
HCT116 cells = assay: Cell viability HCT116; type: cell-based; details: 0.3–20 µM, 24 h, CellTiter-Glo; HDM2- and HDMX-expressing colon cancer; Figure 3A–E
[4] = test system: p53-HDMX complex (MCF-7 cells); assay: Anti-HDMX immunoprecipitation, p53 western, MCF-7; type: cell-based; details: Nutlin-3 20 µM alone or with 5 or 20 µM SAH-p53-8, 10 µM MG-132, 6 h, Figure 7A
JEG-3 cells = assay: Cell viability JEG-3; type: cell-based, human; details: 0.3–20 µM, 24 h, CellTiter-Glo; HDMX-overexpressing choriocarcinoma; Figure 3C
p53 (JEG-3 cells) = assay: p53 western analysis, JEG-3; type: cell-based, human; details: 20 µM, 6 h, Figure 4A
[5] = test system: HCT116 cells deficient in p53; assay: Cell viability HCT116 deficient in p53; type: cell-based; details: 0.3–20 µM, 24 h, CellTiter-Glo; genetic deletion of p53; Figure 3F, 3G
SJSA-X cells [6] = assay: Combination / synergy study, SJSA-X; type: cell-based; details: SJSA-X (induced HDMX expression in isogenic SJSA-1), 0.5–20 µM; Figure 7G
[7] = test system: osteosarcoma murine xenograft; details: ref Vassilev et al., 2004; cited from earlier work
[8] = test system: caspase-3/7 (JEG-3 cells); assay: Caspase-3/7 activation, JEG-3; type: cell-based, human; details: 0.3–10 µM, 12 h, Caspase-3/7-Glo, Figure 5B
[9] = ref Vassilev et al., 2004; cited from earlier work
MCF-7 cells [10] = assay: Cell viability MCF-7; type: cell-based; details: 0.3–20 µM, 24 h, CellTiter-Glo; HDM2- and HDMX-expressing breast cancer; Figure 3A–E
p53 (MCF-7 cells) = assay: p53 western analysis, MCF-7; details: Nutlin-3 20 µM, 10 µM MG-132, 6 h, Figure 7A
[11] = test system: p53-HDMX complex (JEG-3 cells); assay: Anti-HDMX immunoprecipitation, p53 western, JEG-3; type: cell-based, human

| Compound | cell viability A431 (A431 cells (R273H p53)) | cell viability SJSA-1 (SJSA-1 cells) | viability of normal human fibroblasts WS1 [1] | sensitivity of MCF-7 to Nutlin-3 (MCF-7 cells [2]) | cell viability SJSA-X (SJSA-X cells [3]) | inhibition of HDM2 (HDM2) | cell viability HCT116 (HCT116 cells) | p53-HDMX complex [4] | cell viability JEG-3 (JEG-3 cells) | p53 levels (p53 (JEG-3 cells)) | cell viability HCT116 deficient in p53 [5] | single-agent effect in synergy study (SJSA-X cells [6]) | anti-tumor efficacy [7] | caspase-3/7 activation [8] | cell cycle arrest and apoptosis [9] | cell viability MCF-7 (MCF-7 cells [10]) | p53 levels (p53 (MCF-7 cells)) | p53-HDMX complex ([11]; 20 µM, 6 h, anti-HDMX IP, Figure 4A) | p53-HDMX complex in the presence of MG-132 ([11]; 0–20 µM SAH-p53-8 with 10 µM MG-132, 6 h, Figure 4B) |
| --- | --- | --- | --- | --- | --- | --- | --- | --- | --- | --- | --- | --- | --- | --- | --- | --- | --- | --- | --- |
| COc1ccc(C2=N[C@@H](c3ccc(Cl)cc3)[C@@H](c3ccc(Cl)cc3)N2C(=O)N2CCNC(=O)C2)c(OC(C)C)c1 [Nutlin-3] | similarly unaffected | very sensitive; also recorded: more cytotoxic than SAH-p53-8 in SJSA-1 cells | no impact on the viability of normal human fibroblasts | only modestly sensitive | little to no response | inhibits HDM2 | modestly sensitive | appearance of the inhibitory p53-HDMX complex | little to no response; also recorded: most resistant to Nutlin-3 | an increase in p53 levels was observed | completely insensitive | ineffective as a single agent | exhibits anti-tumor efficacy | little effect | triggers cell cycle arrest and apoptosis | modestly sensitive | can elevate p53 levels in MCF-7 cells | p53-HDMX complexes were preserved, if not increased | – |
| CC(C)C[C@@H](C=O)NC(=O)[C@H](CC(C)C)NC(=O)[C@H](CC(C)C)NC(=O)OCc1ccccc1 [MG-132] (Cbz-Leu-Leu-Leu-aldehyde) | – | – | – | – | – | – | – | – | – | – | – | – | – | – | – | – | – | – | increased p53-HDMX complex |

— paper PMC3050021 (Cancer cell, 2010)
